Reference: ChEMBL document CHEMBL2417373, “Substituted tetrahydroisoquinolines as selective antagonists for the orexin 1 receptor” (J Med Chem, 2013)
The source made the active and inactive calls. No cut-off for these calls is given here.

Legend:
[1] = target: T1, Orexin/Hypocretin receptor type 1 (Homo sapiens) (UniProt O43613); assay: Antagonist activity at OX1 receptor (unknown origin) expressed in RD-HGA16 cells assessed as inhibition orexin A-induced calcium mobilization by fluorescence assay; format: functional, cell-based
T1 sequence (whole entry): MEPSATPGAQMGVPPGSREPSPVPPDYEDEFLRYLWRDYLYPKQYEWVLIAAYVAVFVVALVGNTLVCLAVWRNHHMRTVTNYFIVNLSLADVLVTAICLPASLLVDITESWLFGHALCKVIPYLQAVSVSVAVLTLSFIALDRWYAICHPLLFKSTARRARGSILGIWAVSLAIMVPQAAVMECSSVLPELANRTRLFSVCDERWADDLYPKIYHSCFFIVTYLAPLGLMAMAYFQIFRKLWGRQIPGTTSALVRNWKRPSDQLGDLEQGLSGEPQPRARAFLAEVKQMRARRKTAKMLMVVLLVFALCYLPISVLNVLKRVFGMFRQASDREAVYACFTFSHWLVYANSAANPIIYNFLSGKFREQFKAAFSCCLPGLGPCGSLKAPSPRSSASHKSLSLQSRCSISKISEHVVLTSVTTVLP

[2] = target: T2, Orexin receptor type 2 (Homo sapiens) (UniProt O43614); assay: Antagonist activity at OX2 receptor (unknown origin) expressed in RD-HGA16 cells assessed as inhibition orexin A-induced calcium mobilization at 10 uM by fluorescence assay; format: functional, cell-based
T2 sequence (whole entry): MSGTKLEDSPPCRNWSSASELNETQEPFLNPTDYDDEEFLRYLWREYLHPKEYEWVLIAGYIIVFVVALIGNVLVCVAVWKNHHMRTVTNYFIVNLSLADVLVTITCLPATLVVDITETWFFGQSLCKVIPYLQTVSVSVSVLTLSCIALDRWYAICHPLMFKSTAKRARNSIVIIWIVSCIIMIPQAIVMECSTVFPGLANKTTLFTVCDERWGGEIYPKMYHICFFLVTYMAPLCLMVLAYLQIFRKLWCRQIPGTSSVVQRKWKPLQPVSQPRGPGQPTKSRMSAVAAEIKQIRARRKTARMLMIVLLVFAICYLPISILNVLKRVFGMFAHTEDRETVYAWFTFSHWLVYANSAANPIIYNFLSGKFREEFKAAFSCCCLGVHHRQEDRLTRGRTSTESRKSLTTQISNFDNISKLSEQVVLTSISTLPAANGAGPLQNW

[3] = target: T1, Orexin/Hypocretin receptor type 1 (Homo sapiens); assay: Agonist activity at OX1 receptor (unknown origin) expressed in RD-HGA16 cells assessed as calcium mobilization at 10 uM by fluorescence assay; format: functional, cell-based
Homo sapiens = organism: Homo sapiens; assay: Selectivity ratio of Ke for OX2 receptor (unknown origin) to Ke for OX1 receptor (unknown origin)

Row | Ke(app) [1] [nM] | inhibition [2] [%] | Activity [3] | Ratio (Homo sapiens) | Structure (SMILES)
1 | 3250 | < 30 |  |  | COc1ccc(CC2c3cc(OC)c(OC)cc3CCN2CC(=O)NCCc2ccccc2)cc1OC (stereo not given)
2 | > 10000 | < 30 |  |  | COc1ccc(CC2c3cc(OC)c(OC)cc3CCN2CC(=O)N[C@@H](C)c2ccccc2)cc1OC (single isomer, unassigned; diastereomer 1)
3 | > 10000 | < 30 |  |  | COc1ccc(CC2c3cc(OC)c(OC)cc3CCN2CC(=O)OCc2ccccc2)cc1OC (stereo not given)
4 | 279 |  | inactive | 12.4 | COc1ccc(CC2c3cc(OC)c(OC)cc3CCN2CC(=O)NCc2ccc(F)cc2)cc1OC (stereo not given)
5 | 41.1 |  | inactive | 15.9 | COc1ccc(CC2c3cc(OC)c(OC)cc3CCN2CC(=O)NC2CCCc3ccccc32)cc1OC (stereo not given)
6 | 944 |  | inactive | 1.9 | COc1ccc(CC2c3cc(OC)c(OC)cc3CCN2CC(=O)Nc2ccccc2-c2ccccc2)cc1OC (stereo not given)
7 | 261 |  | inactive |  | COc1ccc(CC2c3cc(OC)c(OC)cc3CCN2CC(=O)NCc2ccccn2)cc1OC (stereo not given)
8 | > 10000 | < 30 |  |  | COc1ccc(CC2c3cc(OC)c(OC)cc3CCN2CC(=O)N2CCN(c3ccccc3)CC2)cc1OC (stereo not given)
9 | 4510 | < 30 |  |  | COc1ccc(CC2c3cc(OC)c(OC)cc3CCN2CC(=O)Nc2cc(C)nc3ccccc23)cc1OC (stereo not given)
10 | 732 | < 30 | inactive |  | COc1ccc(CC2c3cc(OC)c(OC)cc3CCN2CC(=O)Nc2cccc3ccccc23)cc1OC (stereo not given)
11 | 152 |  | inactive |  | COc1ccc(CC2c3cc(OC)c(OC)cc3CCN2CC(=O)NCc2cccnc2)cc1OC (stereo not given)
12 | 162 |  | inactive | 14 | COc1ccc(CC2c3cc(OC)c(OC)cc3CCN2CC(=O)NCc2ccc(Cl)cc2)cc1OC (stereo not given)
13 | 3030 |  |  | 3 | COc1ccc(CC2c3cc(OC)c(OC)cc3CCN2CC(=O)N2CCc3ccccc3C2)cc1OC (stereo not given)
14 | 1010 | < 30 |  |  | COc1ccc(CC2c3cc(OC)c(OC)cc3CCN2CC(=O)NCc2ccncc2)cc1OC (stereo not given)
15 | 2090 |  |  |  | COc1ccc(CC2c3cc(OC)c(OC)cc3CCN2CC(=O)N(C)Cc2ccccc2)cc1OC (stereo not given)
16 | 3530 |  |  | 2.6 | COc1ccc(CC2c3cc(OC)c(OC)cc3CCN2CC(=O)N2CCCC(c3ccccc3)C2)cc1OC (stereo not given)
17 | 7170 | < 30 |  |  | COc1ccc(CC2c3cc(OC)c(OC)cc3CCN2CC(=O)NC2CC(C)Nc3ccccc32)cc1OC (stereo not given)
18 | 2370 | < 30 |  |  | COc1ccc(CC2c3cc(OC)c(OC)cc3CCN2CC(=O)NCCCc2ccccc2)cc1OC (stereo not given)
19 | 199 |  | inactive |  | COc1ccc(CC2c3cc(OC)c(OC)cc3CCN2CC(=O)NCc2ccccc2)cc1OC (stereo not given)
20 | > 10000 | < 30 |  |  | COc1ccc(CC2c3cc(OC)c(OC)cc3CCN2CC(=O)N2CCC(c3ccccc3)CC2)cc1OC (stereo not given)

More lines, now with the values behind:

Row | Structure (SMILES) | Ke(app) [1] [nM] | inhibition [2] [%] | Activity [3] | Ratio (Homo sapiens)
21 | COc1ccc(CC2c3cc(OCC4CCCCC4)c(OC)cc3CCN2CC(=O)NCc2ccccc2)cc1OC (stereo not given) | > 10000 | < 30 |  | 
22 | COc1ccc(CC2c3cc(OS(=O)(=O)c4ccc(C)cc4)c(OC)cc3CCN2CC(=O)NCc2ccccc2)cc1OC (stereo not given) | 118 | < 30 | inactive | 
23 | COc1ccc(CC2c3cc(OC)c(OC)cc3CCN2CC(=O)Nc2ccc(-c3ccccc3)cc2)cc1OC (stereo not given) | 2240 | < 30 |  | 
24 | COc1ccc(CC2c3cc(OCCN4CCCCC4)c(OC)cc3CCN2CC(=O)NCc2ccccc2)cc1OC (stereo not given) | 8040 | < 30 |  | 
25 | COc1ccc(CC2c3cc(OCCC(C)C)c(OC)cc3CCN2CC(=O)NCc2ccccc2)cc1OC (stereo not given) | 326 |  | inactive | 12
26 | COc1ccc(CC2c3cc(OCc4cccnc4)c(OC)cc3CCN2CC(=O)NCc2ccccc2)cc1OC (stereo not given) | 277 | < 30 | inactive | 
27 | COc1ccc(CC2c3cc(OC)c(OC)cc3CCN2CC(=O)Nc2cccc(-c3ccccc3)c2)cc1OC (stereo not given) | 8980 | < 30 |  | 
28 | COc1ccc(CC2c3cc(OC)c(OC)cc3CCN2CC(=O)NCC(N)=O)cc1OC (stereo not given) | > 10000 | < 30 |  | 
29 | COc1ccc(CC2c3cc(OS(C)(=O)=O)c(OC)cc3CCN2CC(=O)NCc2ccccc2)cc1OC (stereo not given) | 7.3 |  | inactive | 297
30 | COc1ccc(CC2c3cc(OCc4ccccn4)c(OC)cc3CCN2CC(=O)NCc2ccccc2)cc1OC (stereo not given) | 101 | < 30 | inactive | 
31 | CCCOc1cc2c(cc1OC)CCN(CC(=O)NCc1ccccn1)C2Cc1ccc(OC)c(OC)c1 (stereo not given) | 20.6 |  | inactive | 
32 | COc1ccc(CC2c3cc(OCC(F)(F)F)c(OC)cc3CCN2CC(=O)NCc2ccccn2)cc1OC (stereo not given) | 22.5 |  | inactive | 
33 | COc1ccc(CC2c3cc(OC)c(OC)cc3CCN2CC(=O)NCc2ccc(N(C)C)cc2)cc1OC (stereo not given) | 3230 |  |  | 
34 | CCCC(=O)Oc1cc2c(cc1OC)CCN(CC(=O)NCc1ccccc1)C2Cc1ccc(OC)c(OC)c1 (stereo not given) | 78.5 |  | inactive | 
35 | CCCOc1cc2c(cc1OC)CCN(CC(=O)NCc1cccnc1)C2Cc1ccc(OC)c(OC)c1 (stereo not given) | 41.9 |  | inactive | 
36 | CCOc1cc2c(cc1OC)CCN(CC(=O)NCc1cccnc1)C2Cc1ccc(OC)c(OC)c1 (stereo not given) | 15.7 |  | inactive | 
37 | COc1ccc(CC2c3cc(OC)c(OC)cc3CCN2CC(=O)Nc2ccnc3c(F)cccc23)cc1OC (stereo not given) | 4220 | < 30 |  | 
38 | COC(=O)CNC(=O)CN1CCc2cc(OC)c(OC)cc2C1Cc1ccc(OC)c(OC)c1 (stereo not given) | 6630 | < 30 |  | 
39 | CCOc1cc2c(cc1OC)CCN(CC(=O)NCc1ccccc1)C2Cc1ccc(OC)c(OC)c1 (stereo not given) | 30 |  | inactive | 

Row | Structure (SMILES) | Ke(app) [1] [nM] | inhibition [2] [%] | Activity [3] | Ratio (Homo sapiens)
40 | CCCCCCCNC(=O)CN1CCc2cc(OC)c(OC)cc2C1Cc1ccc(OC)c(OC)c1 (stereo not given) | 589 |  | inactive | 3.9
41 | COc1ccc(CC2c3cc(OCCCCOc4ccccc4)c(OC)cc3CCN2CC(=O)NCc2ccccc2)cc1OC (stereo not given) | 43.5 |  | inactive | 
42 | CCCCCCOc1cc2c(cc1OC)CCN(CC(=O)NCc1ccccc1)C2Cc1ccc(OC)c(OC)c1 (stereo not given) | 315 |  | inactive | 
43 | COc1ccc(CC2c3cc(OS(=O)(=O)c4ccccc4)c(OC)cc3CCN2CC(=O)NCc2ccccc2)cc1OC (stereo not given) | 30.5 |  | inactive | 95.1
44 | CCCCCCNC(=O)Nc1ccc(CNC(=O)CN2CCc3cc(OC)c(OC)cc3C2Cc2ccc(OC)c(OC)c2)cc1 (stereo not given) | 3680 |  |  | 0.7
45 | COc1ccc(CC2c3cc(OC)c(OC)cc3CCN2CC(=O)NCc2ccc(NC(C)=O)cc2)cc1OC (stereo not given) | > 10000 | < 30 |  | 
46 | CCCOc1cc2c(cc1OC)CCN(CC(=O)NCc1ccccc1)C2Cc1ccc(OC)c(OC)c1 (stereo not given) | 17.3 |  | inactive | 
47 | COc1ccc(CC2c3cc(OS(=O)(=O)C(F)(F)F)c(OC)cc3CCN2CC(=O)NCc2ccccc2)cc1OC (stereo not given) | 10 |  | inactive | 
48 | COc1ccc(CC2c3cc(OCCCCN(C)C)c(OC)cc3CCN2CC(=O)NCc2ccccc2)cc1OC (stereo not given) | 5740 | < 30 |  | 
49 | CCCCCC(=O)Nc1ccc(CNC(=O)CN2CCc3cc(OC)c(OC)cc3C2Cc2ccc(OC)c(OC)c2)cc1 (stereo not given) | > 10000 |  |  | 
50 | CCOc1cc2c(cc1OC)CCN(CC(=O)NCc1ccccn1)C2Cc1ccc(OC)c(OC)c1 (stereo not given) | 87.4 |  | inactive | 
51 | COc1ccc(CC2c3cc(OC)c(OC)cc3CCN2CC(=O)NCCCN(C)C)cc1OC (stereo not given) | > 10000 | < 30 |  | 
52 | COc1cc2c(cc1O)C(Cc1ccc(OC)c(OC)c1)N(CC(=O)NCc1ccccc1)CC2 (stereo not given) | 1530 |  |  | 3.8
53 | COc1ccc(CC2c3cc(OCC(F)(F)F)c(OC)cc3CCN2CC(=O)NCc2ccccc2)cc1OC (stereo not given) | 9.4 |  | inactive | 
54 | COc1ccc(CC2c3cc(OCc4ccccc4)c(OC)cc3CCN2CC(=O)NCc2ccccc2)cc1OC (stereo not given) | 402 | < 30 | inactive | 
55 | COc1ccc(CC2c3cc(OCCN(C)C)c(OC)cc3CCN2CC(=O)NCc2ccccc2)cc1OC (stereo not given) | 4740 | < 30 |  | 
56 | CNC(=O)CNC(=O)CN1CCc2cc(OC)c(OC)cc2C1Cc1ccc(OC)c(OC)c1 (stereo not given) | 7640 | < 30 |  | 
57 | CCCCOc1cc2c(cc1OC)CCN(CC(=O)NCc1ccccc1)C2Cc1ccc(OC)c(OC)c1 (stereo not given) | 54.7 |  | inactive | 34.6
